Data: US7223424B2, “Compositions and methods for prostate and kidney health and disorders, an herbal preparation” (Integrated Chinese Medicine Holdings, Ltd., priority 2001, dated 2007)

Test system: person with enlarged prostate
Assay: Case report: person with enlarged prostate and frequent urination
Assay type: in vivo, human
Details: prescribed for enlarged prostate
Description: Person diagnosed with having an enlarged prostate suffered from frequent-urination problems including increased daily frequency and reduced volume. They had the urge to urinate every two hours and the amount was only a few drops. Their symptoms were attributed to old age. […] They are able to urinate what they consider a normal amount of urine in a steady stream as opposed to the dribbling they experienced prior to taking the 9-herb composition. […] Because they are sleeping better, they have more energy throughout the day.

CC(C)(C)NC(=O)[C@H]1CC[C@H]2[C@@H]3CC[C@H]4NC(=O)C=C[C@]4(C)[C@H]3CC[C@]12C [PROSCAR]
urination problem: did not alleviate the urination problem
